# Reference: US20250276994A1, “CAP ANALOG FOR THE 5'-END OF EUKARYOTIC MESSENGER RNAS” (WESTFÄLISCHE WILHELMS-UNIVERSITÄT, priority 2021, published 2025)
# Key:
# T7 RNA polymerase = biological target: T1, T7 RNA polymerase (Escherichia phage T7, UniProt P00573); test: In vitro transcription of GLuc mRNA with cap analogs, gel analysis; assay type: biochemical
# T1 construct: purchased Thermo Scientific
# Procedure: First, the DNA sequence coding for eGFP, Firefly luciferase (FLuc) or Gaussia luciferase (GLuc) mRNAs were amplified from pmRNA-vectors containing the respective sequence. After purification (NucleoSpin Gel and PCR Clean-up, Macherey-Nagel), the resulting linear dsDNA was used as template (200 ng) for in vitro T7 transcription performed in transcription buffer (40 mM Tris/HCl, 25 mM NaCl, 8 mM MgCl2, 2 mM spermidine(HCl)3) by adding either a A/C/UTP (0.5 mM) mix or a mix with modified nucleotides (A/m^5C/N^1-methylpseudo-UTP) (0.5 mM), GTP (0.25 mM), GpppG, m7GpppG, ApppG, DMNB or NPOM cap analog (1 mM), T7 RNA polymerase (50 U) (Thermo Scientific) and pyrophosphatase (0.1 U) (Thermo Scientific) for 4 h at 37° C. Remaining DNA template was digested in presence of 2 U DNase I for 1 h at 37° C. and then mRNAs were purified using the RNA Clean & Concentrator™-5 Kit (Zymo Research). To digest non-capped RNAs, 10 U of the RNA 5′-polyphosphatase (Epicentre) as well as the supplied reaction buffer were added to purified mRNAs. After an incubation period of 30 min at 37° C., 0.5 U of the 5′-3′ exoribonuclease XRN1 (NEB) and MgCl2 (5 mM) were added. The reaction mixture was incubated for 60 min at 37° C. Subsequently, capped mRNAs were purified using the RNA Clean & Concentrator™-5 Kit (Zymo Research).
# The photocleavable 5′-cap analogs of formulas (12) and (18) were used for in vitro transcription of GLuc mRNA as described above and analysed via agarose gel electrophoresis.
# “M” denotes Riboruler low range RNA ladder.
# Reticulocyte Lysate = test: In vitro translation of capped FLuc-mRNA and luminescence measurement; assay type: biochemical; conditions: capped FLuc-mRNA
# Procedure: In vitro translation was performed using a eukaryotic cell free protein expression kit from Reticulocyte Lysate (Invitrogen). Experiments were performed in 12.5 μL total volume containing 20 ng of the corresponding FLuc-mRNAs, 50 μM L-methionine and 150 mM potassium acetate. Samples were mixed with 8.5 μL of the reticulocyte lysate and incubated for 90 min at 30° C. Afterwards, 2 μL of the respective translation mix were used in subsequent luminescence measurement. The translation efficiency of the reporter mRNAs was assessed in a luciferase assay using Beetle-juice Luciferase Assay Firefly (pjk). Luciferase activity was determined by adding 50 μL freshly prepared substrate solution to the translation mixture. Luminescence was monitored using a Tecan Infinite® m1000pro microplate reader with an acquisition time of 3 s (duration of signal acquisition).
# The photocleavable 5′-cap analog of formula (7) was used for in vitro transcription to make FLuc mRNA as described above. This was used for in vitro translation and Luminescence measurement as described above. The commercial non-modified cap analog denoted “m^7GpppG” (Jena Bioscience) was used as positive control. Samples were irradiated for 30 seconds. The ApppG capped mRNA, which is not recognized by the translation initiation factor served as negative control, which is substracted from the other samples as it represents background activity. The experiment was performed in quadruplicates. The FLuc-mRNA capped with the photocleavable 5′-cap analog of formula (7) is denoted “ONB”.
# The in vitro translation assay and luminescence measurement was performed as described above using the photocleavable 5′-cap analog of formula (12). The capped mRNA was denoted “DMNB-m^7GpCH2ppG capped FLuc-mRNA”. Samples were irradiated for 30 seconds (365 nm) or 60 seconds (405 nm). The commercial non-modified cap analog denoted “m^7GpppG” (Jena Bioscience) was used as positive control and all other samples were normalized to it. The ApppG capped mRNA, which is not recognized by the translation initiation factor served as negative control, which is substracted from the other samples as it represents background activity. The experiment was performed in triplicates, except *DMNB-m7GpCH2ppG (365 nm) which was a single determination.
# The in vitro translation assay in reticulocyte lysate and luminescence measurement was performed as described above using m^7GpppG capped FLuc-mRNA caged with the photocleavable 5′-cap analog of formulas (22) and (25) (denoted “DMNB m^7GpppG” and “NPOM m^7GpppG”). Samples were irradiated for 30 seconds at 365 nm. The ApppG capped mRNA, which is not recognized by the translation initiation factor served as negative control, which was substracted from the other samples as it represents background activity. The values were normalized to the non-irradiated sample with m^7GpppG capped mRNA (100%). The experiment was performed in triplicates.
# The in vitro translation assay in reticulocyte lysate and luminescence measurement was performed as described above using m^7GpppG capped FLuc-mRNA with modified nucleotides m^5C and N^1methyl-pseudouridine caged with the photocleavable 5′-cap analog of formulas (22) and (25) (denoted “DMNB m^7GpppG mod” and “NPOM m^7GpppG mod”). Samples were irradiated for 30 seconds at 365 nm. The ApppG capped mRNA, which is not recognized by the translation initiation factor served as negative control, which was substracted from the other samples as it represents background activity. The values were normalized to the non-irradiated sample with m^7GpppG capped mRNA (100%). The experiment was performed in triplicates.
# [1] = Irradiation of photocleavable 5′-cap analogs, LC-MS (triple quad); assay type: physicochemical; conditions: 30 seconds, 365 nm (3 W)
# Procedure: For determination of mass spectra, HPLC—triple-quadrupole mass spectrometry system was used. The system consists of Agilent 1260 Infinity II with dual λ absorbance detector (G7114A) HPLC part and Agilent Ultivo mass spectrometer with JetStream ion source (type of ESI). Column which was used: Agilent Poroshell 120 EC-C18 (3.0×150/2.7 μm). The polar compounds were tested by LC method (eluent 20 mM NH40Ac buffer (pH=6)/CH3CN, gradient 0-30%, column temperature=20° C.).
# Samples of the photocleavable 5′-cap analog of formula (22) were irradiated for 30 seconds with 365 nm (3 W).
# T1 sequence (P00573 whole entry): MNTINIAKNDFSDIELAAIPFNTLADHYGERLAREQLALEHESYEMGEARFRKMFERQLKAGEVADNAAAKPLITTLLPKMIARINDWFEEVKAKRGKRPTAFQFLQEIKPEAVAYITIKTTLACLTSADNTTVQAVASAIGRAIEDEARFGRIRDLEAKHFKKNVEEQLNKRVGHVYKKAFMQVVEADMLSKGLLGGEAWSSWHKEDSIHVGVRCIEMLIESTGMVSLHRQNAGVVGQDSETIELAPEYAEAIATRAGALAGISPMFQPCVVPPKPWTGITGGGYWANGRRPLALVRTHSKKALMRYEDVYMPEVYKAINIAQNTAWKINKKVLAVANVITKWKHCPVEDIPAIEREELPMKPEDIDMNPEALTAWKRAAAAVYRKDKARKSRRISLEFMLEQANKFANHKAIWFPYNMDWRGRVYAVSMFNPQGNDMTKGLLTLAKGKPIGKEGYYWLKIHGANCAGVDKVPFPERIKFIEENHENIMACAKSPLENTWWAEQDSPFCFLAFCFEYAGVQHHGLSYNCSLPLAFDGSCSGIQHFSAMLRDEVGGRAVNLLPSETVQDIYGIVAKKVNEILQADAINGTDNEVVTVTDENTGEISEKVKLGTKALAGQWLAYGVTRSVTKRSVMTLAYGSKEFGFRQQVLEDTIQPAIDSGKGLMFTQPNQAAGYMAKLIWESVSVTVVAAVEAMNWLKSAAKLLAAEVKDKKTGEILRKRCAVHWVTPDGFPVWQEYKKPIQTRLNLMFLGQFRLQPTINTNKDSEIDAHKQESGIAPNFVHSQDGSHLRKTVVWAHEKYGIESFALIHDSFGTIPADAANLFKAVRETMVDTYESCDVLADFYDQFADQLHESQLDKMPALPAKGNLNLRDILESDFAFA
structure (smiles),measurement,setting,value
"COc1cc(COC(=O)Nc2nc3c(c(=O)[nH]2)[n+](C)cn3[C@@H]2O[C@H](COP(=O)(O)CP(=O)(O)OP(=O)(O)OC[C@H]3O[C@@H](n4cnc5c(=O)[nH]c(N)nc54)C(O)C3O)C(O)C2O)c([N+](=O)[O-])cc1OC (stereo partly shown) [compound 12, P1-(N^2-(4,5-Dimethoxy-2-nitrobenzyl)oxycarbonyl-7-methylguanosin-5′-yl)-P3-guanosin-5′-yl 1,2-methylenetriphosphate]",incorporation of cap analog into RNA,T7 RNA polymerase,incorporated into the RNA
same,in vitro translation (luminescence) after irradiation,Reticulocyte Lysate; 30 seconds (365 nm) or 60 seconds (405 nm),partially restored
same,"in vitro translation (luminescence), non-irradiated","Reticulocyte Lysate; non-irradiated, normalized to m^7GpppG capped mRNA",successfully inhibited to a high degree
same,uncaging of the cap after irradiation (LC-MS),[1],partially uncaged
